Assay results from patent US20170166555A1, “FUNCTIONALISED AND SUBSTITUTED INDOLES AS ANTI-CANCER AGENTS” (Novogen Limited, priority 2013, published 2017).
Read-outs that look alike come from different tables or passages of the source.

Columns and labels:
[1] = test system: total actin cytoskeleton in SK-N-SH neuroblastoma cells; test: Microfilament disruption assay, 488-Atto-Phallodin imaging and filament quantitation; format: cell-based; settings: 0-40 μM, 24 h, FIG. 2
Procedure: (§1) FIG. 2: Imaging and quantitation of actin filaments in SK—N—SH neuroblastoma cells treated with compound (A) 4093 and (B) 4113. Cells were stained with 488-Atto-Phallodin and DAPI to visualize the actin filament bundles and the nucleus, respectively. Shown in the top panel is a representative grey scale immunofluorescent image from control (vehicle alone), 5 μM and 10 μM treated cells. […] The coloured lines indicate the detected actin filaments. Also shown is the quantitation of cell number, filament number/cell and filament number/cell area ([…]). […]
(§2) The ability of compounds 4093 and 4113 to disrupt the total actin cytoskeleton (FIG. 2) and to specifically target Tm5NM1-containing actin filaments (FIG. 3) was assessed in vitro using the microfilament disruption assay.
(§3) Briefly, SK-N-SH neuroblastoma cells were seeded at 1800 cells/well in a 384 Perkin Elmer High Content Imaging “View” plate and left to plate down 24 h prior to treatment. […] Images were then exported and changes in the organization and numbers of actin filaments within the cell were quantitated using a linear feature detection algorithm developed by the CSIRO. […] It is these “ridge lines” that correspond to actin filament bundles and allow us to quantitate the number of filaments per cell.

[2] = test system: Tm5NM1-containing actin filaments in SK-N-SH neuroblastoma cells; test: Microfilament disruption assay, γ9d staining imaging and filament quantitation; format: cell-based; settings: 0-40 μM, 24 h, FIG. 3
Procedure: as §1, with “FIG. 3:” for “FIG. 2:”, “with γ9d (sheep polycolonal, 1:100) followed by 488-conjugated secondary (1:1000)” for “with 488-Atto-Phallodin”, “the Tm5NM1 containing” for “the actin”
as §2, §3

[3] = test system: MDA-MB-231 triple negative breast cancer cells; test: Anti-proliferative assay, cell-titre luminescent reagent, 72 h (GVK-BIO); format: cell-based; settings: Homo sapiens
Summary of the method: (§4)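 Luminescent cell-titre viability was read 30 min after reagent addition, following 72 h compound exposure of cells pre-cultured 24 h at 37 °C, 5% CO2. Dose sets were 30–0.03 μM (4 points) or 30–0.1 μM (6 points), giving IC50 by linear regression or EC50 by nonlinear variable-slope fit vs vehicle.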

SK-Mel-28 melanoma cells = test: as above; format: cell-based; settings: Homo sapiens
Summary of the method: as §4

[4] = test system: PC3 prostate cancer cells; test: as above; format: cell-based
Summary of the method: as §4

[5] = test system: DU145 prostate cancer cells; test: as above; format: cell-based; settings: Homo sapiens
Summary of the method: as §4

[6] = test system: A549 non-small cell lung carcinoma cells; test: as above; format: cell-based; settings: Homo sapiens, read-out: IC50/μM Lung (NSLC) A549
Summary of the method: as §4

[7] = test system: CaCo2 colorectal cancer cells; test: as above; format: cell-based; settings: Homo sapiens
Summary of the method: as §4

[8] = test system: SK-N-SH neuroblastoma cells; test: as above; format: cell-based; settings: Homo sapiens
Summary of the method: as §4

[9] = test system: non-transfected and Tm5NM1 stably transfected MEFs; test: MTT viability in non-transfected versus Tm5NM1 stably transfected MEFs; format: cell-based, mouse; settings: 48 hr, FIG. 1
Procedure: FIG. 1: Activity of selected compounds against Tm5NM1/2 transfected mouse embryonic fibroblasts versus non-transfected MEFs.
Compounds 4001, 4010, 4014, 4008 and 4015 were then screened against non-transfected and Tm5NM1 stably transfected MEFs. Briefly, MEFs were transfected with pEYFP-C1/Tm5NM1 constructs using the Amaxa nucleofector apparatus (program A-023) and MEF nucleofector kit 1 (Lonza) according to the manufacturer's instructions. Cell viability assays were also conducted to assess the anti-proliferative effects of the anti-tropomyosin compounds. Briefly, cells (1×10^3/well) were plated (96-well) and treated (48 hr) with anti-tropomyosin compounds and viability measured using 3-(4,5-dimethylthiazol-2-yl)-2, 5-diphenylterazolium bromide MTT. Cell viability was normalized to control (vehicle alone) and dose-response curves, and half maximal effective concentration (EC50) values were determined using Graph Pad Prism 5 (nonlinear regression sigmoidal dose-response variable slope).

[10] = test system: neuroblastoma (SH-EP) cells; test: Cell viability assay (MTT, 48 hr); format: cell-based; settings: 48 hr treatment, read-out: IC50 (μM) SHEP
Procedure: (§5) Cell viability assays were also conducted to assess the anti-proliferative effects of the anti-tropomyosin compounds 4001-4015. Briefly, cells (1×10^3/well) were plated (96-well) and treated (48 hr) with anti-tropomyosin drug and viability measured using 3-(4,5-dimethylthiazol-2-yl)-2,5-diphenylterazolium bromide MTT. Cell viability was normalized to control (vehicle alone) and dose-response curves, and half maximal effective concentration (EC50) values were determined using Graph Pad Prism 5 (nonlinear regression sigmoidal dose-response variable slope).

[11] = test system: melanoma (SK-Mel-28) cells; test: Cell viability assay (MTT, 48 hr); format: cell-based; settings: Homo sapiens, 48 hr treatment, read-out: IC50 (μM) SKMEL28
Procedure: as §5

[12] = MDA-MB-231, 72 h, 30, 3, 0.3 and 0.03 μM, linear regression (Tables 2-4)
[13] = SK-MEL-28, 72 h, 30, 3, 0.3 and 0.03 μM, linear regression (Tables 2-4)
[14] = 30, 3, 0.3 and 0.03 μM, linear regression (Tables 2-4)
[15] = DU-145, 72 h, 30, 3, 0.3 and 0.03 μM, linear regression (Tables 2-4)
[16] = A549, 72 h, 30, 3, 0.3 and 0.03 μM, linear regression (Tables 2-4)
[17] = Caco-2, 72 h, 30, 3, 0.3 and 0.03 μM, linear regression (Tables 2-4)
[18] = SK-N-SH, 30, 3, 0.3 and 0.03 μM, linear regression (Tables 2-4)

Row | SMILES | Disruption of the total actin cytoskeleton [1] | Disruption of Tm5NM1-containing actin filaments [2] | IC50 ([3]; MDA-MB-231, 72 h, 30, 10, 3, 1, 0.3 and 0.1 μM, nonlinear regression (Table 5)) [µM] | IC50 (SK-Mel-28 melanoma cells; SK-MEL-28, 72 h, 30, 10, 3, 1, 0.3 and 0.1 μM, nonlinear regression (Table 5)) [µM] | IC50 ([4]; 30, 10, 3, 1, 0.3 and 0.1 μM, nonlinear regression (Table 5)) [µM] | IC50 ([5]; DU-145, 72 h, 30, 10, 3, 1, 0.3 and 0.1 μM, nonlinear regression (Table 5)) [µM] | IC50 ([6]; A549, 72 h, 30, 10, 3, 1, 0.3 and 0.1 μM, nonlinear regression (Table 5)) [µM] | IC50 ([7]; Caco-2, 72 h, 30, 10, 3, 1, 0.3 and 0.1 μM, nonlinear regression (Table 5)) [µM] | IC50 ([8]; SK-N-SH, 30, 10, 3, 1, 0.3 and 0.1 μM, nonlinear regression (Table 5)) [µM] | Selectivity: toxicity against primary MEFs versus MEFs stably transfected with Tm5NM1/2 [9] | IC50 [10] [µM] | IC50 [11] [µM] | IC50 [3, 12] [µM] | IC50 (SK-Mel-28 melanoma cells; [13]) [µM] | IC50 [4, 14] [µM] | IC50 [5, 15] [µM] | IC50 [6, 16] [µM] | IC50 [7, 17] [µM] | IC50 [8, 18] [µM]
1 | Cc1c(C)n(CCCN2CCN(C)CC2)c2ccc(CN3CCN(CCc4ccc5c(c4)OCO5)CC3)cc12 [Compound 4113, 5-((4-(2-(benzo[d][1,3]dioxol-5-yl)ethyl)piperazin-1-yl)methyl)-2,3-dimethyl-1-(3-(4-methylpiperazin-1-yl)propyl)-1H-indole] | disrupt both the total actin cytoskeleton and Tm5NM1-containing actin filaments in a dose-dependent manner | disrupt both the total actin cytoskeleton and Tm5NM1-containing actin filaments in a dose-dependent manner | 2.8 | 0.9 | 11.4 | 5.4 | 5.2 | 4.6 | 1.7 | – | – | – | – | – | – | – | – | – | –
2 | CN(C)CCCn1ccc2cc(Cc3ccc(C(=O)Nc4ccccc4)cc3)ccc21 [Compound 4001, 4-((1-(3-(dimethylamino)propyl)-1H-indol-5-yl)methyl)-N-phenylbenzamide] | – | – | – | – | – | – | – | – | – | less toxicity noted against primary mouse embryonic fibroblasts (MEFs) compared with MEFs stably transfected with Tm5NM1/2 | 4.63 | 4.3 | 3.1 | 3.6 | 2.8 | 3.2 | 2.7 | 3 | 4.1
3 | Cc1c(C)n(CCCN(C)C)c2ccc(Nc3ccc(C(=O)Nc4ccccc4)cc3)cc12 [Compound 4010, 4-((1-(3-(dimethylamino)propyl)-2,3-dimethyl-1H-indol-5-yl)amino)-N-phenylbenzamide] | – | – | – | – | – | – | – | – | – | less toxicity noted against primary mouse embryonic fibroblasts (MEFs) compared with MEFs stably transfected with Tm5NM1/2 | 6.4 | 3.4 | 2.6 | 3.4 | 4 | 3.4 | 2.8 | 3.5 | 3.6
